# Reference: patent US8754052B2, “Treatment of nephrolithiasis and urolithiasis using 1,2,3,4,6-penta-O-galloyl-beta-D-glucose (PGG)” (Mayo Foundation for Medical Education and Research, priority 2008, dated 2014)
# How the values were obtained:
# [1] = system: MDCK I cells; assay: [14C]COM crystal binding assay; type: cell-based, Canine
# Protocol: Calcium oxalate monohydrate (COM) crystals were prepared from supersaturated solutions. To prepare radioactive COM crystals, [^14C]oxalic acid (30-60 mCi/mmol; ICN Biomedicals, Irivine, Calif., USA) was added to a sodium oxalate solution, producing a specific activity of 10^5 cpm/mL, and sufficient calcium chloride was then added to form a supersaturated solution. […] Dulbecco-Vogt modified Eagle's essential medium (DMEM; GIBCO, Life Technologies Inc., NY), antibiotic-antimycotics were purchased from GIBCO (Grand island, NY). Fetal bovine serum (FBS) was from JRH (Lenexa, Kans.). HEPES (N-[2-hydroxyethyl]piperazine-N′-[2-ethanesulfonic acid]), sodium bicarbonate, MTT (3-(4,5-dimethylthiazol-2-yl)-2,5-diphenyltetrazolium bromide, BSA (bovine serum albumin were obtained from Sigma Chemical Co. (St. Louis, Mo.).
# (§1) Renal epithelial cells were of the Madin-Darby Canine kidney (MDCK) line, type I, derived from the distal nephron. Cells were grown in DMEM containing 25 mmol/L glucose at 37° C. in a humidified atmosphere containing […] CO2. To prepare high-density, quiescent cultures at 1×10^6 cells/35-mm plastic plate (9.62 cm^2; Nunc, Naperville, Ill., USA) were performed in DMEM containing 10% fetal bovine serum. Two days later when the cells were confluent, the established monolayer was used in the examples that follow.
# MDCK I cells were treated with various concentrations (1, 5 and 10 μM) of PGG for 15 min or 24 h with and without wound damage and washed with phosphate-buffered saline (PBS, pH 7.4). Then [^14C] calcium oxalate monohydrate (COM) crystals were added to MDCK 1 cells, until a final concentration of 200 μg/mL (41.6 μg/cm^2 of cells) was achieved. The culture dishes were gently agitated for 5 seconds to uniformly distribute the crystals so that they settled to the surface of the cell monolayer under the force of gravity. After 2 min, the buffer was aspirated and the cells were washed 3 times with PBS. The cells and adherent crystals were then liquefied in 1 mL of 10% NaOH for 1 h and transferred to a scintillation vial containing 4.5 mL of Ecoscient (National Diagnostics, E. Palmetto, Fla., USA). The amount of radioactivity was measured, as described previously (See Riese, R. J. et al. Am J. Physiol (1992) 262: F177-84). Similarly, to precoat the [^14C]COM crystals with PGG, 0.4 mg [^14C]COM crystals were placed in a 5-mL tube containing 2 mL of a solution containing various concentrations (1, 5 and 10 μM) of PGG diluted in PBS. The crystals were incubated under end-over-end rotation for 15 min at room temperature, pelleted by centrifugation at 2,000 r.p.m. for 5 min, washed with PBS and then resuspended in 2 mL PBS. Two minutes later, the crystal binding activity was measured as described above.
# [2] = system: hyperoxaluric wild type rats; assay: Ethylene glycol/ammonium chloride induced nephrolithiasis in hyperoxaluric rats; type: in vivo, Harlan Sprague Dawley Rats; conditions: for Serum BUN (mean ± SD) / Serum Calcium (mean ± SD) / Serum Creatinine (mean ± SD) / Serum Phosphate (mean ± SD) / Serum Uric acid (mean ± SD): rat serum; for Urine Calcium / Urine Mean Vol ± SD / Urine Mean pH ± SD: rat urine; for Survival (%): rats
# Protocol: Rats were administered PGG, with and without ethylene glycol given to render the rats hyperoxaluric. The effect of PGG on renal crystal deposition was assessed, to confirm the ability of PGG to prevent crystal deposition. Urine of animals was collected and extensively studied to quantitate biochemical and functional changes, and determine the mechanism of the apparent salutary effects, in several studies outlined in Table 1. Functional effects of treated rat urine on crystal nucleation, growth, aggregation and cell interaction was also tested, and compared to urine from control animals.
# Six rats per group were treated (see Table 1 below). Harlan Sprague Dawley Rats (300 g) received 0.8% ethylene glycol and 1% ammonium chloride mixed with the drinking water to induce nephrolithiasis, PGG in 2 different doses (4 mg/kg and 20 mg/kg), or both for a full 4 weeks. The doses of PGG covered the range deemed effective in mouse experiments on angiogenesis over a 2-log range factored for relative body size. PGG was administered to all rats via […]. Urine was collected for chemistries and crystalluria quantification at weekly intervals, with full urinary inhibition studies at 3 weeks, and histologic evaluation after week 3. Kidneys were examined quantitatively for the presence of cortical and medullary crystals, as well as interstitial fibrosis, by a blinded observer. Crystal deposition within cortex and medulla were also quantified under polarizing microscopy using Metamorph software.
# Twenty four-hour rat urine samples were collected in a metabolic cage with sodium azide as a preservative. Urine was centrifuged, the pellet resuspended, and crystal size and quantity assessed in a hemocytometer.
# Spot urine or 24-hr urine samples from individual rats under study were assayed before and after hyperoxaluric treatment. Spot urine samples were collected directly into Eppendorf tubes, centrifuged at 5,000×g for 5 min to dispose of cell debris, and stored at −80° C. until use. Urinary concentrations of oxalate, calcium and other determinants of SS were measured. SS was calculated using the EQUIL2 program.
# Urine chemistry and enzymes were evaluated to measure urine pH, […] clearance, the presence and concentration of oxalate, calcium, citrate, and 8-Hydroxy-2′-deoxyguanosine (8-OH-dG). 8-OH-dG has been regarded as a potential marker of oxidative DNA damage induced by ROS. Urinary 8-OHdG was measured using a commercially available competitive 8-OHdG enzyme-linked immunosorbent assay kit. The number of oxalate crystal deposits in the kidneys was measured using a hematoxylin and eosin stain. Reverse transcriptase PCR (RT-PCR) was used to detect and quantify superoxide dismutase (SOD) mRNA and osteopontin mRNA. Immunohistochemical staining techniques were used to measure SOD and osteopontin protein expression […]. Blood chemistry was also studied to measure levels of creatinine, uric acid, phosphate, blood urea nitrogen (BUN), and malondialdehyde (MDA) in the subjects.
# [3] = system: hyaluronan; assay: Hyaluronan expression by confocal microscopy and Western blot; type: cell-based, Canine
# Protocol: A middle line was scraped in the confluent MDCK 1 cells grown on coverslips using a 200 μL plastic pipette tip. The MDCK I cells on coverslips were then exposed to various concentrations (1, 5 and 10 μM) of PGG for 15 minutes or 24 hours at 37° C. The coverslips were rinsed three times with PBS, and fixed using 3.7% formaldehyde in PBS for 15 min. Cells were then rinsed three times with PBS and incubated with 1% goat serum for 1 h to block nonspecific binding sites. The goat serum was aspirated and the cells were incubated for 1 hour in a humidified chamber at 37° C. with biotinylated HABP. The cells were then washed with PBS (10 min×3) and then incubated 1 h with an avidin-conjugated Texas red (Molecular Probes, Eugene, Oreg.) in a humidified chamber at 37° C. Cells were again washed with PBS (10 min×3), and the coverslips were mounted onto glass slides using Slow-Fade (Molecular Probes, Eugene, Oreg.). The XZ section was scanned using a LSM 510 confocal microscope (Carl Zeiss, Oberkochen, Germany) equipped with an Axiovert 100M microscope and a c-Apochromat 63/1.2 numerical aperture water-immersion lens. Texas red was excited at 568-nm of an argon-krypton laser and the Emission for Texas red was collected at >585 nm.
# For Western blotting, MDCK-I cells with or without scrape-wounding 24 hours earlier were harvested and washed with cold PBS; PGG (1, 5, 10 μM) was added to the medium 15 min or 24 hours prior to harvest. Cells were incubated in lysis buffer (50 mM Tris-HCl (pH 7.4), 150 mM NaCl, 1% Triton X-100, 0.1% SDS and 1 mM EDTA) supplemented with protease inhibitors ([…] and 1 mM of 4-(2-aminoethyl) benzenesulfonyl fluoride) and phosphatase inhibitors (1 mM NaF and 1 mM Na3VO4) for 20 min on ice. Lysates were centrifuged at 14,000 g for 20 min at 4° C. Lysates containing […] of protein were fractionated by SDS-PAGE and electrotransferred to a Hybond ECL transfer membrane (Amersham Pharmacia, Arlington Heights, Ill.). The blocked membranes were then incubated with primary antibodies (1:200 dilution) of HABP. […]
# [4] = Toxicology study in mice orally fed with PGG; type: in vivo, ICR mice; conditions: oral 10, 20 and 40 mg/kg
# Protocol: To examine the optimal dose for animal study, a toxicology study was performed in mice orally fed with PGG (10, 20, and 40 mg/kg). Each group consisted of five ICR mice.
# [5] = system: MDCK I cells; assay: Cytotoxicity assay (MTT colorimetric assay); type: cell-based, Canine
# Protocol: as §1
# The effect of PGG on cytotoxicity against MDCK 1 cells was evaluated using a MTT (3-(4,5-dimethylthiazol-2-yl)-2,5-diphenyltetrazolium bromide) colorimetric assay. PGG was dissolved with dimethylsulfoxide (DMSO). The cells were seeded onto 96-well microplates at a density of 1×10^4 cells per well in 100 μL of DMEM containing 10% fetal bovine serum. […] Cells were incubated at 37° C. for 1 h and the optical density was measured using a microplate reader (Molecular Devices Co.) set at 570 nm. Cell viability was calculated as the percentage of viable cells in the PGG treated group versus those in the untreated control group using the following equation: cell viability (%)=[OD (PGG)−OD (Blank)/OD (Control)−OD (Blank)]×100.
# [6] = system: MDCK I cells; assay: Wound healing assay (migration after scrape wounding); type: cell-based, Canine; conditions: Canis lupus familiaris, 24 h, FIG. 3, read-out: inhibiting wound healing (migration after scrape wounding)
# Protocol: as §1
# MDCK I cells were seeded in a 35-mm plastic plate to confluent status overnight and incubated with serum-free medium for 6 h. A plastic pipette tip (200 μl size) was used to scrape a line between the MDCK1 cells that was approximately 2 to 3 mm wide across the entire culture dish. The medium was replaced by serum-free medium including various concentrations (1, 5 and 10 μM) of PGG. After incubation at 37° C. for 24 h, each plate was photographed (100×) and quantified.
smiles,measurement,setting,value
"O=C(OC[C@H]1O[C@@H](OC(=O)c2cc(O)c(O)c(O)c2)[C@H](OC(=O)c2cc(O)c(O)c(O)c2)[C@@H](OC(=O)c2cc(O)c(O)c(O)c2)[C@@H]1OC(=O)c1cc(O)c(O)c(O)c1)c1cc(O)c(O)c(O)c1 [PGG, 1,2,3,4,6-penta-O-galloyl-beta-D-glucose]",COM crystal adhesion to MDCK I cells,"[1]; PGG added to the buffer, concentration-dependent, FIG. 4A",significantly reduced
same,COM adhesion to scrape-wounded MDCK I cells,"[1]; after 15 min or 24 h incubation time, FIGS. 2A and 2B",significantly inhibited
same,crystal binding by PGG-pretreated MDCK I cells,"[1]; cells pretreated 15 minutes or 24 hours, FIG. 5",bound less crystals
same,binding of PGG-precoated COM crystals to cells,"[1]; crystals precoated with PGG 15 min, concentration-dependent, FIG. 4B",decrease their subsequent binding to cells
same,survival rate compared with normal group,[2]; 20 mg/kg PGG,mirrored that of those in the normal group
same,Serum BUN (mean ± SD),[2]; PGG 4 mg/kg + EG,24.6 ± 3.9 mg/dL
same,Serum Calcium (mean ± SD),[2]; PGG 4 mg/kg + EG,10.9 ± 1.1 mg/dL
same,Serum Creatinine (mean ± SD),[2]; PGG 4 mg/kg + EG,0.6 ± 0.5 mg/dL
same,Serum Phosphate (mean ± SD),[2]; PGG 4 mg/kg + EG,10.7 ± 1.4 mg/dL
same,Serum Uric acid (mean ± SD),[2]; PGG 4 mg/kg + EG,2.9 ± 3.2 mg/dL
same,Urine Calcium,[2]; PGG 4 mg/kg + EG,2.95 ± 0.31
same,Urine Mean Vol ± SD,[2]; PGG 4 mg/kg + EG,33.0 ± 3.74 mL
same,Urine Mean pH ± SD,[2]; PGG 4 mg/kg + EG,6.7 ± 1.2
same,Survival (%),[2]; PGG 4 mg/kg,83%
same,Serum BUN (mean ± SD),[2]; PGG 20 mg/kg + EG,23.3 ± 3.7 mg/dL
same,Serum Calcium (mean ± SD),[2]; PGG 20 mg/kg + EG,10.5 ± 0.3 mg/dL
same,Serum Creatinine (mean ± SD),[2]; PGG 20 mg/kg + EG,0.6 ± 0.1 mg/dL
same,Serum Phosphate (mean ± SD),[2]; PGG 20 mg/kg + EG,9.4 ± 0.8 mg/dL
same,Serum Uric acid (mean ± SD),[2]; PGG 20 mg/kg + EG,1.6 ± 1.0 mg/dL
same,Urine Calcium,[2]; PGG 20 mg/kg + EG,3.52 ± 0.31
same,Urine Mean Vol ± SD,[2]; PGG 20 mg/kg + EG,34.7 ± 3.59 mL
same,Urine Mean pH ± SD,[2]; PGG 20 mg/kg + EG,7.1 ± 0.8
same,Survival (%),[2]; PGG 20 mg/kg,100%
same,survival time of the rats,"[2]; upon administration of PGG, FIG. 12 and Table 4",increased
same,number of stones (calcium oxalate in urine) versus stone group,"[2]; urine at 21 days, FIG. 14",considerably less
same,"total cell hyaluronan expression by wounded monolayers (Western blot), effect versus 15 min","[3]; 24 hours exposure, 1-10 μM, FIG. 6B",slightly more pronounced
same,hyaluronan expression on the surface of wounded MDCK 1 cells (confocal microscopy),"[3]; PGG treatment 15 minutes or 24 hours, concentration dependent, FIG. 6A",attenuated
same,total cell hyaluronan expression by wounded monolayers (Western blot),"[3]; within 15 minutes of PGG addition, FIG. 6B",decreased
same,"body weight of mice, PGG versus control groups",[4]; FIG. 7,no significant difference
same,hematological values,[4]; FIG. 9,did not affect
same,GOT and GPT levels,[4]; FIG. 10,did not affect
same,"shapes and weights of organs (spleen, liver, kidney, lung)",[4]; FIGS. 8 and 11,did not affect
same,cytotoxicity against MDCK I cells,"[5]; concentrations up to 25 uM, 24 h, FIG. 1",did not exert any significant cytotoxicity
same,cytotoxicity on MDCK I cells (FIG. 1 legend),[5]; except at high concentrations,lack of cytotoxicity
same,inhibition at 1 µM,[6]; 1 μM PGG,2%
same,inhibition at 5 µM,[6]; 5 μM PGG,26%
same,inhibition at 10 µM,[6]; 10 μM PGG,49%
